Test results published in US5770573A, “CS-1 peptidomimetics, compositions and methods of using the same” (Cytel Corporation, priority 1995, dated 1998).
Square brackets hold non-standard residues; d marks the D form. Peptide text beside a SMILES is read from it. * marks the point of attachment. PhAc = O=C(Cc1ccccc1)*

What was measured:
[1] = tested on: delayed-type hypersensitivity murine model; experiment: Adoptive transfer delayed type hypersensitivity in mice (oxazolone); assay type: in vivo, mouse; settings: 6 mg/kg/day s.c. by implanted pump for 24 hours; versus saline
Description: An adoptive transfer delayed-type hypersensitivity murine model has been developed using splenic T cells primed to oxazolone. This model is described in Elices et al., Clin. Exp. Rheum., 11 (Suppl. 8):577-580 (1993), whose procedures were followed here.
Thus, BALB/c mice were shaved on the belly and painted (50 μl on the belly and 5 μl on each paw) with three percent oxazolone in acetone/olive oil (4:1) at days zero and 1. At day 5, the mice were sacrificed, their spleens removed, and splenic T cells were obtained via nylon wool columns.
Normal saline or saline containing 25×10^6 /animal of the oxazolone-immune T cells were separately injected into naive mice. The mice were then challenged by painting 10 μl of 2 percent oxazolone onto one ear each. All procedures were carried out under sterile conditions and in endotoxin-free buffers.
Prior to challenge or saline injection, the mice were implanted with pumps that subcutaneously administered normal saline, normal saline containing the compound, Compound ID No. 896.52, N-phenylacetyl-Leu-Asp-Phe-D-Pro-NH2, or normal saline containing a compound with a scrambled sequence continually at 6 mg/kg/day for a 24-hour time period. The swelling diameter at the site of challenge or saline injection was measured with a microcaliper 24 hours thereafter.
An expanded study was carried out as described above except that a scrambled compound control was not used as a control for further inhibitor compounds of Table 1 with larger groups of mice. Statistical analyses were carried out versus injection of vehicle alone.

asthmatic sheep = experiment: Treatment of asthmatic sheep (Ascaris suum antigen); assay type: in vivo; settings: 24 hours after challenge; pre-challenge about 20-23 BU
Description: Six asthmatic sheep were treated in a double blind cross-over study. […] This study was carried out generally as described in Abraham et al., J. Clin. Invest., 93:776-787 (1994).
The inhibitor compound used here was Compound ID No. 896.52, N-phenylacetyl-Leu-Asp-Phe-D-Pro-NH2, with a control compound that comprised the previously described compound having the same residues in a scrambled sequence. The vehicle for the nebulized compounds was phosphate-buffered saline. The compounds were administered at a dose of 1 mg/kg each, twice a day for three days prior to challenge, as well as 0.5 hours prior to and four hours post challenge on day 4. Because this was a crossover study, each animal received one or the other treatment, followed by a rest and then the other treatment. Each animal therefore served as its own control.
Post challenge airway responsiveness was also assayed. Here, specific lung resistance, SRL, returned to baseline values 24 hours after challenge, however, the sheep were hyperresponsive to inhaled carbachol at that time.

[2] = tested on: rabbit cardiac allograft coronary arteries; experiment: Rabbit cardiac allograft model; assay type: in vivo; as to Expression on Coronary Arteries: ICAM-1: key: -: negative; ±: minimal; +: little; ++: moderately abundant; +++: very abundant; as to Expression on Coronary Arteries: Macrophages: key: -: negative; ±: minimal; +: little; ++: moderately abundant; +++: very abundant; as to Expression on Coronary Arteries: T cells: key: -: negative; ±: minimal; +: little; ++: moderately abundant; +++: very abundant; as to Expression on Coronary Arteries: Total Fibronectin: key: -: negative; ±: minimal; +: little; ++: moderately abundant; +++: very abundant
Text: New Zealand white rabbit SPF hearts were allografted into the necks of similar rabbits to assay a graft-vs-host immunorejection model and the affect of a contemplated compound on that immunoinflammatory response.
Experimental animal model New Zealand white female rabbits (Charles River Lab., Saint Laurent, Quebec), between 3.5 and 4 kg underwent heterotopic cardiac transplant following an experimental protocol previously described [Alonso et al., Am. J. Pathol., 87:415-442 (1977); Clausell et al., Circulation, 89:2768-2779 (1994)]. The animals were unselected to favor an HLA-mismatch, the host rabbits were Pasteurella-free and the donors, outbred animals. Both host and donor rabbits were fed Purina 5321-0.5 percent cholesterol diet (Research Diets Inc., New Brunswick, N.J.), a strategy that has proven useful in accelerating the process of allograft arteriopathy [Alonso et al., Am. J. Pathol., 87:415-442 (1977)]. The diet was commenced four days prior to the transplant and continued in the recipient of the transplant until the completion of the experimental period.
The technique of heterotopic cardiac transplantation has been previously described [Clausell et al., Circulation, 89:2768-2779 (1994)]. Briefly, a vertical incision was performed in the anterior aspect of the neck of the recipient rabbit and the left common carotid artery and the ipsilateral external jugular vein were isolated. The cardiac allograft was placed in the neck by anastomosing the aorta end-to-side to the recipient's carotid artery and the pulmonary end-to-side to the recipient's external jugular vein, following a total period of ischemia for the donor hearts of approximately 30 minutes. Postoperative care was in compliance with the Principles of Laboratory Animal Care formulated by the Canadian National Society for Medical Research.
Beginning the day of the transplant, the animals were randomized and treated with either scrambled compound (control group) at 1 mg/kg s.c. or the inhibitor compound at 1 mg/kg s.c. The doses of the compounds were empirically extrapolated to the in vivo model based on preliminary in vitro studies, of Table 1. No other immunosuppression therapy was administered. The grafts were monitored daily by palpation and maintained for 7 to 8 days, a previously described endpoint that was associated with myocardial rejection (impaired cardiac contractility) and development of the allograft arteriopathy in this model [Clausell et al., Circulation, 89:2768-2779 (1994)]. A total of fourteen animals were studied in the control (n=7) and treated (n=7) groups.
Preparation of the hearts The animals were sacrificed using a lethal dose of euthanol (480 mg i.v.) (MTC Pharmaceutical, Cambridge, Oreg.), host and donor hearts were removed, and the coronary arteries were perfused with saline through the aorta, followed by light fixation by perfusion with 2 percent paraformaldehyde (Sigma, St, Louis, Mo.). […] Different sections of the hearts were either saved in 10 percent formalin (BDH Inc., Toronto, ON) for light microscopy studies or immediately frozen in O.T.C. Compound Tissue Tek (Miles Inc., Elkart, In.) for specific immunohistochemistry studies.
Three different paraffin-embedded tissue sections from host and donor hearts from both control and treated rabbits were stained by the Movat pentachrome method for light microscopy. Morphometric analysis was performed using a Zeiss microscope attached to a computer-generated video analysis system (Perceptics Inc., NuVision software), as described in Clausell et al., Circulation, 89:2768-2779 (1994). The number of vessels with intimal lesions were counted in all three heart sections from each animal studied and are expressed as a percentage of the total vessel number.
In the host hearts, 999 vessels in the control group and 1054 vessels in the treated group were analyzed. In the donor hearts, 827 vessels in the control group and 617 vessels in the treated group were analyzed. […]

CC(C)C[C@H](NC(=O)[C@H](CC(=O)O)NC(=O)Cc1ccccc1)C(=O)N[C@@H](Cc1ccccc1)C(=O)N1CCC[C@@H]1C(N)=O [Compound ID No. 1066.02, N-phenylacetyl-Asp-Leu-Phe-D-Pro-NH2, reference compound] (PhAc-DLF[dP]-NH2)
swelling at challenge site (initial study, FIG. 5) [1]: no reduction of inflammation | PC400, carbachol dosage to increase SRL 4-fold (asthmatic sheep): about 12 BU | Expression on Coronary Arteries: ICAM-1 ([2]; 1 mg/kg s.c., 7 to 8 days): + | Expression on Coronary Arteries: Macrophages ([2]; 1 mg/kg s.c., 7 to 8 days): + | Expression on Coronary Arteries: T cells ([2]; 1 mg/kg s.c., 7 to 8 days): ++ | Expression on Coronary Arteries: Total Fibronectin ([2]; 1 mg/kg s.c., 7 to 8 days): ++ | Expression on Coronary Arteries: VCAM-1 ([2]; 1 mg/kg s.c., 7 to 8 days): + | Expression on Coronary Arteries: MHC Class II ([2]; 1 mg/kg s.c., 7 to 8 days, immunoperoxidase score): ++ | Vessel Intimal Thickening: Percent of Vessels ([2]; donor hearts, 1 mg/kg s.c.): 88% | Vessel Intimal Thickening: Severity (Percent of Vessel area) ([2]; donor hearts, 1 mg/kg s.c.): 36% | Baseline (rabbit own host heart) of incidence ([2]; host heart): 1% | Baseline (rabbit own host heart) of severity ([2]; host heart): 12%
